The inhibition is the relative decrease from the control value, in per cent. As usually defined, the Kd is the concentration at which binding is half-saturated. High values mean weaker binding, low ones tighter binding. One may read the IC50 as the concentration needed to halve the response being measured.

Experiment [1] concerns the target T1, Lysine-specific demethylase 2A (Homo sapiens) (UniProt Q9Y2K7).
T1 sequence (whole entry): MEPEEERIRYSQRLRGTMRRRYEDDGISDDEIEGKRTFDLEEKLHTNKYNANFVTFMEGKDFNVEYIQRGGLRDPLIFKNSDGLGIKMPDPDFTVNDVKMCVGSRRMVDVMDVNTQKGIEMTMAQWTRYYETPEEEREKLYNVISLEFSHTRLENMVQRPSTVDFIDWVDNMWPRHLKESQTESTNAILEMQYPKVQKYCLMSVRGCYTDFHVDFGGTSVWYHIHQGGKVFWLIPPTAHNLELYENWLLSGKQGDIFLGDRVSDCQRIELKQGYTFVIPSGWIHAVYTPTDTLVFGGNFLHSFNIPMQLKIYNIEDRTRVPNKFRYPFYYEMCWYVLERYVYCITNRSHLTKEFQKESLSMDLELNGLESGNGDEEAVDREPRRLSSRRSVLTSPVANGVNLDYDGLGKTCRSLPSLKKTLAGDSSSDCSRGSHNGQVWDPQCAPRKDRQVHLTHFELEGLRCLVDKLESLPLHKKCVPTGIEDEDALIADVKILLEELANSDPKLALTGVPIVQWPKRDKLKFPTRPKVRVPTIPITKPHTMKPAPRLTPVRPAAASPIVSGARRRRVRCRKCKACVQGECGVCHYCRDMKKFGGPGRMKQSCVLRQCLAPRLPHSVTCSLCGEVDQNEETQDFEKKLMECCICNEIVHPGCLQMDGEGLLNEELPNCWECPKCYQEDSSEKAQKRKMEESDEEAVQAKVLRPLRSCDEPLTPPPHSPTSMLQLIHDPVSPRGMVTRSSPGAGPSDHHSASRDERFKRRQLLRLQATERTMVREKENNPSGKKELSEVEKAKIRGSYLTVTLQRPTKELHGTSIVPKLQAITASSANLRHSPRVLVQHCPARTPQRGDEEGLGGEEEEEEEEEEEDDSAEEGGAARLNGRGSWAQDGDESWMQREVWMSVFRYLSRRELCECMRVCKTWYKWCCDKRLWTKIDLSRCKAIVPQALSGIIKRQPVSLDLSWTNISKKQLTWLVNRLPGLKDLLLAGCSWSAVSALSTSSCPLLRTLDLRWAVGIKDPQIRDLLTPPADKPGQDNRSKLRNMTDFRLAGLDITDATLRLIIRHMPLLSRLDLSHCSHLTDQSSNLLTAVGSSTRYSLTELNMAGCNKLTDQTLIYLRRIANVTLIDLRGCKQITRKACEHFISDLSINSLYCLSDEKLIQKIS
Kind of experiment: Displacement of 2OG from FBXL11 (1 to 517) (unknown origin) expressed in Escherichia coli at 800 uM.

Experiment [2] concerns the target T2, Egl nine homolog 1 (Homo sapiens, UniProt Q9GZT9). Briefly: Binding affinity to human PHD2 catalytic domain (181 to 426) Mn2 expressed in Escherichia coli by NMR spectroscopic analysis.
Target sequence in this assay (Q9GZT9 whole entry, the tested form may be a part): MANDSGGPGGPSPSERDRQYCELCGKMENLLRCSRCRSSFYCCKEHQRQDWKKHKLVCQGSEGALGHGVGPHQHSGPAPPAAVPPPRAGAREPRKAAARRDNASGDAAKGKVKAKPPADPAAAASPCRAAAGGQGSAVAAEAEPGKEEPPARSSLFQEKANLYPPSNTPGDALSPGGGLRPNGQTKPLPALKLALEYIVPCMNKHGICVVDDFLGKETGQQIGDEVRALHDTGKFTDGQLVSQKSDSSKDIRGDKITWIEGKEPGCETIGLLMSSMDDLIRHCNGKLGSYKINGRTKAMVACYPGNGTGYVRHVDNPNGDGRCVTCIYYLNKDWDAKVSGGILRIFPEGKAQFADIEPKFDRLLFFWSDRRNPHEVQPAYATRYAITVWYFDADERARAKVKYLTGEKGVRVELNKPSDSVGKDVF
Experiment [3] deals with T2, Egl nine homolog 1. Kind of experiment: Inhibition of human PHD2 catalytic domain (181 to 426) Mn2 expressed in Escherichia coli by NMR spectroscopic analysis.
Target sequence in this assay (Q9GZT9 whole entry, the tested form may be a part): as above
For experiment [4], the target named is T2, Egl nine homolog 1. Kind of experiment: Displacement of [13C]-2OG from catalytic domain of PHD2 (181 to 426) (unknown origin) expressed in Escherichia coli.
Target sequence in this assay (Q9GZT9 whole entry, the tested form may be a part): as above
The target in experiment [5] is T2, Egl nine homolog 1. Briefly: Displacement of 2OG from catalytic domain of PHD2 (181 to 426) (unknown origin) Zn2 expressed in Escherichia coli at 150 uM.
Target sequence in this assay (Q9GZT9 2-426 limits assumed): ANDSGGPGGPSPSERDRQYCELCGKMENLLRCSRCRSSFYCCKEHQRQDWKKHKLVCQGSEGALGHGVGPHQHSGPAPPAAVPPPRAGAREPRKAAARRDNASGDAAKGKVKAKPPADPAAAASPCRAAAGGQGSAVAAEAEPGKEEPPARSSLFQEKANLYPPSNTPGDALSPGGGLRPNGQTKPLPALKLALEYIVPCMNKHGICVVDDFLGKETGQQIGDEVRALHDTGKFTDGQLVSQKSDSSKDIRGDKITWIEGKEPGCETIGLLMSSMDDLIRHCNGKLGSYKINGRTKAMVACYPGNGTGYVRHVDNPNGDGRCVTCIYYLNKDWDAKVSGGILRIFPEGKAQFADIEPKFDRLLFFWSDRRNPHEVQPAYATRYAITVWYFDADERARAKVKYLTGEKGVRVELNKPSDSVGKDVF
A short description of experiment [6]: (§1) Displacement of 2OG from FIH (unknown origin) expressed in Escherichia coli at 400 uM. The note with it: Homo sapiens.
The nature of experiment [7]: Inhibition of human FIH catalytic domain Mn2 expressed in Escherichia coli by NMR spectroscopic analysis.
Experiment [8] is described as follows: Binding affinity to human FIH catalytic domain Mn2 expressed in Escherichia coli by NMR spectroscopic analysis.
The species entered for a further experiment is Homo sapiens. The description is as §1.
The target of experiment [9] is T2, Egl nine homolog 1. Briefly: Inhibition of PHD2 (unknown origin).
Target sequence in this assay (Q9GZT9 whole entry, the tested form may be a part): as the sequence (Q9GZT9 whole entry, the tested form may be a part) above
Experiment [10] deals with T2, Egl nine homolog 1. Kind of experiment: Displacement of 2OG from catalytic domain of PHD2 (181 to 426) (unknown origin) Zn2 expressed in Escherichia coli at 400 uM.
Target sequence in this assay (Q9GZT9 2-426 limits assumed): as the sequence (Q9GZT9 2-426 limits assumed) above

Calls of active or inactive are those of the source. The rule behind the calls is not given here.

As for `O=C(O)Cc1cs/c(=N\C(=O)CS(=O)(=O)Cc2ccc3ccccc3c2)n1O`, the inhibition in experiment [1] worked out at 90%. In addition, the Kd at Egl nine homolog 1 [2] was 0.1 µM; at Egl nine homolog 1 [4], 110 nM. In addition, the IC50 against Egl nine homolog 1 [3] is 0.02 µM.

Turning to `O=C(O)/C=C/c1ccc(O)c(O)c1`, at Egl nine homolog 1 [5], the inhibition entry was “inactive”.

As to `O=C(O)CNC(=O)c1nc(Cl)c2ccccc2c1O`, the inhibition entry in experiment [1] was “inactive”. In [6], this molecule registered an inhibition of 55%. In experiment [7], this molecule had an IC50 above 25 µM. Also, in [8], the affinity, expressed as Kd, was 140 µM.

As for `CC(O)C(C)O` (stereo unspecified), the inhibition entry on Egl nine homolog 1 [5] was “inactive”.

For the molecule `O=C(O)CC(O)(CC(=O)O)C(=O)O`, the inhibition entry in the experiment filed under Homo sapiens was “inactive”.

As to `O=C(O)CNC(=O)C(=O)O` [N-OXALYLGLYCINE], the figures for the inhibition in experiment [1] and in experiment [6] were 30% and 85%, respectively. Moreover, the IC50 in [7] turned out to be 50 µM. The molecule further came in with a dissociation constant Kd in [8] of 4 µM.

For the molecule `O=C(O)/C=C/C(=O)O` [FUMARIC ACID], at Egl nine homolog 1 [2], the Kd was found to be 200 µM. Also, half-maximal inhibition at Egl nine homolog 1 [3] (IC50) was put at 220 µM.

The molecule `O=C(O)c1ccnc(C(=O)O)c1` yielded an inhibition in experiment [1] of 70%.

Regarding `O=C(O)CC(O)C(=O)O` (stereo unspecified), the inhibition entry in the experiment listed under Homo sapiens is “inactive”.

Turning to `Oc1ccccc1O`, the inhibition result on Egl nine homolog 1 [5] is “inactive”.

`O=C(O)CC(C(=O)O)C(O)C(=O)O` (stereo unspecified) [ISOCITRATE]: the inhibition entry in the experiment filed under Homo sapiens is “inactive”. The molecule also returned a 50% inhibitory concentration (IC50) on Egl nine homolog 1 [9] above 10 mM.

For the molecule `O=C(O)CCC(=O)O`, the inhibition result in the experiment filed under Homo sapiens is “inactive”.

Regarding `O=C(O)c1ccc(O)c(O)c1`, the inhibition entry on Egl nine homolog 1 [5] was “inactive”.

Consider `O=C(O)c1ccc(O)c2ncccc12`, for which the inhibition in experiment [1] was determined as 65%; in experiment [6], 75%. The molecule also came in with a half-inhibitory concentration (IC50) in experiment [7] of 20 µM. The molecule further registered a dissociation constant (Kd) in [8] of 30 µM.

Consider `O=C(c1ccccc1)c1ccc(O)c(O)c1`, for which the inhibition result at Egl nine homolog 1 [5] was “inactive”.

For the molecule `CCOC(=O)c1ccc(O)c(O)c1`, the inhibition entry at Egl nine homolog 1 [5] was “inactive”.

On Egl nine homolog 1 [10], `O=C(O)CNC(=O)c1ccc(B(O)O)cn1` had an inhibition of 50%.
